The record followed here is patent EP0086092A2, “Antifungal compositions” (priority 1982, dated 1983).

Where “and” joins values, the source holds several entries; their conditions need not be identical. Equal values may be shown once.

Holding throughout (experiment): disc diffusion, zone of inhibition on seeded agar plates
Common to all, as to type: cell-based

Experiment [1] deals with Candida albicans B 311. Conditions: 16-18 h; for Zone Size / Zone Size B 311: 28-37°C; for Zone Size Sabouarud Agar / Zone Size YNB agar: Table II, 37°C; for Zone Size YNB agar: lysine. As for the experimental part: The antifungal activity of aculeacin A and the compositions of aculeacin A and fatty acids was measured by disc diffusion.
The effects of a number of fatty acids on the antifungal activity of aculeacin A were determined by utilizing seeded plates of Candida albicans B 311 in yeast nitrogen base (YNB) agar (Difco) with glucose as the carbon source. A composition containing one unit by weight of aculeacin A and 5 units of fatty acid or the sodium salt thereof was spotted on the seeded plates and the size of the zone of inhibition after 16-18 hours incubation at 28-37 °C was measured.
Additional fatty acids were tested to determine , if they increased the intrinsic activity of aculeacin A against C. albicans B 311 utilizing seeded plates of YNB agar (Difco) with lysine as the carbon source and seeded plates of Sabouarud dextrose agar (Difco). Compositions containg one µg of aculeacin A and various amounts of the fatty acid was spotted on the seeded plates and the size of the zone of inhibition after 16-18 hours incubation at 37 °C was measured.
The antifungal effects of compositions containing a single amount of oleic acid as the sodium salt while varying the amounts of aculeacin A were determined by utilizing seeded plates of Candida albicans B 311 in Sabouarud dextrose agar and measuring the zone of inhibition after 16-18 hours incubation at 28-37°C.
(§1) The antifungal effects of compositions containing a single amount of aculeacin A while varying the amounts. of oleic acid as the sodium salt were determined by utilizing seeded plates of Candida albicans strains B 311, BC 759 and B 3153A and measuring the zone of inhibition after 16-18 hours at 28-37°C. This test was also performed with linoleic acid and linolenic acid.
(§2) The seeded plates of Candida albicans strains B 311, BC 759, and B 3153A were prepared by inoculating 50 ml of trypticase soy broth (BBL) with one ml of the preserved frozen culture and incubating the inoculum at 37°C for 7 hours on a rotary shaker. Two milliliters of this culture were used to inoculate one liter of Sabouarud dextrose agar (Difco) at 50°C and 15 milliliters of the resultant medium poured into 150 mm petri-dishes.

For experiment [2], the system named is Candida albicans B 3153A. The following applies: Table IV-a; aculeacin A 0.40 µg, oleic acid 0 µg; 16-18 h, 28-37°C. The procedure:
(§3) The antifungal activity of aculeacin A and the compositions of aculeacin A and fatty acids was measured by disc diffusion. Potentiation of antifungal activity was examined by three different methods employing: (1) a single concentration of aculeacin A and a single concentration of known fatty acids; '(2) various concentrations of aculeacin A with a single concentration of individual fatty acids; and (3) various concentrations of fatty acids with a single concentration of aculeacin A. The antifungal activities of aculeacin A and the fatty acids were separately checked as controls.
as §1, §2

In experiment [3] the test system is Candida albicans BC 759. The following applies: Table IV-a; aculeacin A 0.40 µg, oleic acid 0 µg; 16-18 h, 28-37°C. The procedure:
as §3, §1, §2

Where [4] appears, read: Sabouarud dextrose agar, aculeacin A 0 µg, fatty acid 500 µg alone.
Where [5] appears, read: Sabouarud dextrose agar, aculeacin A 0 µg, fatty acid 1000 µg alone.
Where [6] appears, read: Sabouarud dextrose agar, composition of aculeacin A 1 µg + fatty acid 500 µg.
Setting [7] is: Sabouarud dextrose agar, composition of aculeacin A 1 µg + fatty acid 1000 µg.
Where [8] appears, read: YNB agar, aculeacin A 0 µg, fatty acid 500 µg alone.
Where [9] appears, read: YNB agar, aculeacin A 0 µg, fatty acid 1000 µg alone.
Setting [10] is: YNB agar, composition of aculeacin A 1 µg + fatty acid 500 µg.
[11] abbreviates: YNB agar, composition of aculeacin A 1 µg + fatty acid 1000 µg.
The mark [12] stands for this setting: Table I, YNB agar, glucose as carbon source, composition of 1 unit by weight aculeacin A + 5 units fatty acid.

Turning to aculeacin A [reference compound], the “Zone Size” value in experiment [1] (Table I, YNB agar, glucose as carbon source, aculeacin A alone, no fatty acid) was 15 mm; in experiment [1] (Table III, Sabouarud dextrose agar, aculeacin A 0.312 µg, oleic acid 0 µg), “trace”; in experiment [1] (Table III, Sabouarud dextrose agar, aculeacin A 0.625 µg, oleic acid 0 µg), 10 mm; in experiment [1] (Table III, Sabouarud dextrose agar, aculeacin A 1.25 µg, oleic acid 0 µg), 14-16 mm; in experiment [1] (Table III, Sabouarud dextrose agar, aculeacin A 2.5 µg, oleic acid 0 µg), 19 mm. In experiment [1] (Sabouarud dextrose agar, aculeacin A 1 µg, no fatty acid), the “Zone Size Sabouarud Agar” value was 13 mm and 15 mm. In addition, the “Zone Size YNB agar” value in experiment [1] (YNB agar, aculeacin A 1 µg, no fatty acid) is 15 mm and 16 mm. The “Zone Size B 311” value is 10 mm in experiment [1] (Table IV-a, aculeacin A 0.40 µg, oleic acid 0 µg) and 16 mm in experiment [1] (Tables IV-b, IV-c, aculeacin A 0.625 µg, fatty acid 0 µg). The “Zone Size B 3153-A” value in experiment [2] was 12 mm. Also, the “Zone Size BC 759” value in experiment [3] came to 13 mm.

Consider `CCCCCCCC/C=C/CCCCCCCC(=O)O` [Eladic Acid], for which the “Zone Size Sabouarud Agar” value in experiment [1] (Sabouarud dextrose agar, aculeacin A 0 µg, fatty acid 250 µg alone) is listed as 0 mm; in experiment [1] (setting [4]), 0 mm; in experiment [1] (setting [5]), 0 mm; in experiment [1] (Sabouarud dextrose agar, composition of aculeacin A 1 µg + fatty acid 250 µg), 18 mm; in experiment [1] (setting [6]) it was 15 mm; in experiment [1] (setting [7]), 13 mm. Besides, the “Zone Size YNB agar” value in experiment [1] (YNB agar, aculeacin A 0 µg, fatty acid 250 µg alone) turned out to be 0 mm; in experiment [1] (setting [8]), 0 mm; in experiment [1] (setting [9]), 0 mm; in experiment [1] (YNB agar, composition of aculeacin A 1 µg + fatty acid 250 µg), 13 mm; in experiment [1] (setting [10]), 13 mm; in experiment [1] (setting [11]), 13 mm.

For `CCCCC/C=C\C/C=C\CCCCCCCC(=O)O` [Linoleic Acid], the “Zone Size” value in experiment [1] (setting [12]) turned out to be 23 mm. For the same compound, the “Zone Size B 311” value is on record as “Trace” in experiment [1] (Table IV-b, aculeacin A 0 µg, fatty acid 225 µg alone); 19 mm in experiment [1] (Table IV-b, aculeacin A 0.625 µg + fatty acid 225 µg); 0 mm in experiment [1] (Tables IV-b, IV-c, aculeacin A 0 µg, fatty acid 28.1 µg alone); 0 mm in experiment [1] (Tables IV-b, IV-c, aculeacin A 0 µg, fatty acid 56.2 µg alone); 0 mm in experiment [1] (Tables IV-b, IV-c, aculeacin A 0 µg, fatty acid 112.5 µg alone); 22 mm in experiment [1] (Tables IV-b, IV-c, aculeacin A 0.625 µg + fatty acid 28.1 µg). Further, the “Zone Size B 311” value came to 22 mm in experiment [1] (Tables IV-b, IV-c, aculeacin A 0.625 µg + fatty acid 56.2 µg) and 21 mm in experiment [1] (Tables IV-b, IV-c, aculeacin A 0.625 µg + fatty acid 112.5 µg).

Take `CCCCCCCCCCCCCC(=O)O` [Myristic Acid]: the “Zone Size” value in experiment [1] (setting [12]) amounted to 16 mm.

As for `CCCCCC/C=C/CCCCCCCC(=O)O` [Palmitelaidic Acid], the “Zone Size Sabouarud Agar” value in experiment [1] (setting [4]) came out at 0 mm; in experiment [1] (setting [5]), 0 mm; in experiment [1] (Sabouarud dextrose agar, aculeacin A 0 µg, fatty acid 2000 µg alone), 0 mm; in experiment [1] (setting [6]), 30 mm; in experiment [1] (setting [7]), 32 mm; in experiment [1] (Sabouarud dextrose agar, composition of aculeacin A 1 µg + fatty acid 2000 µg), 25 mm. For the same compound, the “Zone Size YNB agar” value in experiment [1] (setting [8]) was determined as 0 mm; in experiment [1] (setting [9]), 0 mm; in experiment [1] (YNB agar, aculeacin A 0 µg, fatty acid 2000 µg alone), 0 mm; in experiment [1] (setting [10]), 20 mm; in experiment [1] (setting [11]) it was 20 mm; in experiment [1] (YNB agar, composition of aculeacin A 1 µg + fatty acid 2000 µg) it was 22 mm.

On to `CCCCCCCCCCCCCCCC(=O)O` [Palmitic Acid], for which the “Zone Size” value in experiment [1] (setting [12]) stood at 15 mm.

As to `CCCCCCCCCCCCCCCCCC(=O)O` [Stearic Acid], the “Zone Size” value in experiment [1] (setting [12]) stood at 15 mm.
